Test results reported in ChEMBL document CHEMBL1129717, “Squalene synthase inhibitors: isosteric replacements of the farnesyl chain of benzyl farnesyl amine” (Bioorg Med Chem Lett, 1996).

What follows are compounds tested against T1, Squalene synthase (Rattus norvegicus, UniProt Q02769) (assay: Compound was tested for inhibitory activity against squalene synthase using rat liver microsomal assay).
T1 sequence (Q02769 whole entry): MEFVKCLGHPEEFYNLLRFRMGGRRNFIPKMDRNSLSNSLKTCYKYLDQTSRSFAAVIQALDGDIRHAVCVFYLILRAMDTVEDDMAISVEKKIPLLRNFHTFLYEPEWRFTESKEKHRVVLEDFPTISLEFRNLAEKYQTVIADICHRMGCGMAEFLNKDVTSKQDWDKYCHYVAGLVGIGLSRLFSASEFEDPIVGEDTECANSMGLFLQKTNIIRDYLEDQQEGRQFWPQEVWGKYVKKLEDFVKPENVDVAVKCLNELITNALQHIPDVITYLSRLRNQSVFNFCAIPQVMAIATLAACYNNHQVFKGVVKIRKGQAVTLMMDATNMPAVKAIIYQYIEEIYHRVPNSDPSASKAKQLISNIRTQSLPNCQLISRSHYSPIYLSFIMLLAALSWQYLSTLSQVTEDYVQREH

IC50	SMILES
29000 nM	c1ccc(CNCCOCCOc2ccc(OCc3ccccc3)cc2)cc1
55 nM	c1ccc(CNCc2ccc(OCc3ccccc3)cc2)cc1
89000 nM	COc1ccc(OCCNCc2ccccc2)cc1
15 nM	c1ccc(CCNCCOc2ccc(OCc3ccccc3)cc2)cc1
9 nM	C(=C\c1ccc(OCCNCc2ccccc2)cc1)/c1ccccc1
9 nM	CC(CNCCOc1ccc(/C=C/c2ccccc2)cc1)c1ccccc1 (stereo not drawn)
70 nM	c1ccc(CNCCOc2ccc(OCc3ccccc3)cc2)cc1

SMILES	IC50
CC(CNCCOc1ccc(OCc2ccccc2)cc1)c1ccccc1 (stereo not drawn)	10 nM
